In ChEMBL document CHEMBL3608284, “C4 phenyl aporphines with selective h5-HT(2B) receptor affinity” (Bioorg Med Chem Lett, 2015):

How the values were obtained:
[1] = biological target: 5-hydroxytryptamine receptor 1B (Homo sapiens, UniProt P28222); assay: Displacement of [3H]GR125743 from 5HT1B receptor (unknown origin) at 10 uM
[2] = biological target: 5-hydroxytryptamine receptor 1E (Homo sapiens) (UniProt P28566); assay: Displacement of [3H]5HT from 5HT1E receptor (unknown origin) at 10 uM
[3] = biological target: T1, 5-hydroxytryptamine receptor 2B (Homo sapiens, UniProt P41595); assay: Displacement of [3H]LSD from 5HT2B receptor (unknown origin) at 10 uM
[4] = biological target: T2, 5-hydroxytryptamine receptor 3A (Homo sapiens) (UniProt P46098); assay: Displacement of [3H]LY278584 from 5HT3 receptor (unknown origin) at 10 uM
T2 sequence (whole entry): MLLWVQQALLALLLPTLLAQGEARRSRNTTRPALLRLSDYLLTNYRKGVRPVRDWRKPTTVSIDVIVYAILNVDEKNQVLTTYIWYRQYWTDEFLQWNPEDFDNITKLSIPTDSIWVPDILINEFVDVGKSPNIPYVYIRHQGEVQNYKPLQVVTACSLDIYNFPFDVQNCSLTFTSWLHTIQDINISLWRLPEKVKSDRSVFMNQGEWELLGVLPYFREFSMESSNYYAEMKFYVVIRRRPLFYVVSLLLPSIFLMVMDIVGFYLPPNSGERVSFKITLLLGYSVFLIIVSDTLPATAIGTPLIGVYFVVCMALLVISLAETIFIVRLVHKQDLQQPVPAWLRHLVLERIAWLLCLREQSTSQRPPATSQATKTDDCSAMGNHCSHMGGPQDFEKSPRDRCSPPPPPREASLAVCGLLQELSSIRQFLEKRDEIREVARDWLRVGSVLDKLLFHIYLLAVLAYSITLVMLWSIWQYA

[5] = biological target: 5-hydroxytryptamine receptor 7 (Homo sapiens) (UniProt P34969); assay: Displacement of [3H]LSD from 5HT7 receptor (unknown origin) at 10 uM
[6] = biological target: Alpha-1A adrenergic receptor (Homo sapiens) (UniProt P35348); assay: Binding affinity to alpha1A adrenoceptor (unknown origin) at 10 uM
[7] = biological target: Alpha-1D adrenergic receptor (Homo sapiens) (UniProt P25100); assay: Binding affinity to alpha1D adrenoceptor (unknown origin) at 10 uM
[8] = biological target: Beta-1 adrenergic receptor (Homo sapiens) (UniProt P08588); assay: Binding affinity to beta1 adrenoceptor (unknown origin) at 10 uM
[9] = biological target: Beta-2 adrenergic receptor (Homo sapiens) (UniProt P07550); assay: Binding affinity to beta2 adrenoceptor (unknown origin) at 10 uM
[10] = biological target: Beta-3 adrenergic receptor (Homo sapiens) (UniProt P13945); assay: Binding affinity to beta3 adrenoceptor (unknown origin) at 10 uM
Rattus norvegicus = organism: Rattus norvegicus; assay: Binding affinity to benzodiazepine receptor in rat brain; type: tissue-based; conditions: concentration not given here
[11] = biological target: Cannabinoid receptor 2 (Homo sapiens) (UniProt P34972); assay: Binding affinity to CB2 receptor (unknown origin) at 10 uM
[12] = biological target: D(1A) dopamine receptor (Homo sapiens) (UniProt P21728); assay: Binding affinity to dopamine D1 receptor (unknown origin) at 10 uM
[13] = biological target: D(3) dopamine receptor (Homo sapiens) (UniProt P35462); assay: Binding affinity to dopamine D3 receptor (unknown origin) at 10 uM
[14] = biological target: D(4) dopamine receptor (Homo sapiens) (UniProt P21917); assay: Binding affinity to dopamine D4 receptor (unknown origin) at 10 uM
[15] = biological target: D(1B) dopamine receptor (Homo sapiens) (UniProt P21918); assay: Binding affinity to dopamine D5 receptor (unknown origin) at 10 uM
[16] = biological target: Sodium-dependent dopamine transporter (Homo sapiens) (UniProt Q01959); assay: Binding affinity to DAT (unknown origin) at 10 uM
[17] = biological target: Delta-type opioid receptor (Homo sapiens) (UniProt P41143); assay: Binding affinity to DOR (unknown origin) at 10 uM
[18] = biological target: Histamine H1 receptor (Homo sapiens) (UniProt P35367); assay: Binding affinity to histamine H1 receptor (unknown origin) at 10 uM
[19] = biological target: Histamine H3 receptor (Homo sapiens) (UniProt Q9Y5N1); assay: Binding affinity to histamine H3 receptor (unknown origin) at 10 uM
[20] = biological target: Histamine H4 receptor (Homo sapiens) (UniProt Q9H3N8); assay: Binding affinity to histamine H4 receptor (unknown origin) at 10 uM
[21] = biological target: Kappa-type opioid receptor (Homo sapiens) (UniProt P41145); assay: Binding affinity to KOR (unknown origin) at 10 uM
[22] = biological target: Muscarinic acetylcholine receptor M2 (Homo sapiens) (UniProt P08172); assay: Binding affinity to muscarinic M2 receptor (unknown origin) at 10 uM
[23] = biological target: Muscarinic acetylcholine receptor M5 (Homo sapiens) (UniProt P08912); assay: Binding affinity to muscarinic M5 receptor (unknown origin) at 10 uM
[24] = biological target: Mu-type opioid receptor (Homo sapiens) (UniProt P35372); assay: Binding affinity to MOR (unknown origin) at 10 uM
[25] = biological target: Sodium-dependent noradrenaline transporter (Homo sapiens) (UniProt P23975); assay: Binding affinity to NET (unknown origin) at 10 uM
[26] = biological target: Glutamate NMDA receptor; GRIN1/GRIN2A (Homo sapiens) (UniProt Q05586+Q12879); assay: Binding affinity to NMDA receptor (unknown origin) at 10 uM; type: protein-complex assay
[27] = biological target: Sodium-dependent serotonin transporter (Homo sapiens) (UniProt P31645); assay: Binding affinity to SERT (unknown origin) at 10 uM
[28] = biological target: 5-hydroxytryptamine receptor 6 (Homo sapiens, UniProt P50406); assay: Binding affinity to 5HT6 receptor (unknown origin)
[29] = biological target: Alpha-2A adrenergic receptor (Homo sapiens, UniProt P08913); assay: Binding affinity to alpha2A adrenoceptor (unknown origin)
[30] = biological target: Alpha-2B adrenergic receptor (Homo sapiens, UniProt P18089); assay: Binding affinity to alpha2B adrenoceptor (unknown origin)
[31] = biological target: Alpha-2C adrenergic receptor (Homo sapiens, UniProt P18825); assay: Binding affinity to alpha2C adrenoceptor (unknown origin)
Translocator protein = Translocator protein (Homo sapiens, UniProt P30536); assay: Binding affinity to PBR (unknown origin)
[32] = biological target: T1, 5-hydroxytryptamine receptor 2B; assay: Displacement of [3H]LSD from 5HT2B receptor (unknown origin)

T1 sequence (P41595 whole entry): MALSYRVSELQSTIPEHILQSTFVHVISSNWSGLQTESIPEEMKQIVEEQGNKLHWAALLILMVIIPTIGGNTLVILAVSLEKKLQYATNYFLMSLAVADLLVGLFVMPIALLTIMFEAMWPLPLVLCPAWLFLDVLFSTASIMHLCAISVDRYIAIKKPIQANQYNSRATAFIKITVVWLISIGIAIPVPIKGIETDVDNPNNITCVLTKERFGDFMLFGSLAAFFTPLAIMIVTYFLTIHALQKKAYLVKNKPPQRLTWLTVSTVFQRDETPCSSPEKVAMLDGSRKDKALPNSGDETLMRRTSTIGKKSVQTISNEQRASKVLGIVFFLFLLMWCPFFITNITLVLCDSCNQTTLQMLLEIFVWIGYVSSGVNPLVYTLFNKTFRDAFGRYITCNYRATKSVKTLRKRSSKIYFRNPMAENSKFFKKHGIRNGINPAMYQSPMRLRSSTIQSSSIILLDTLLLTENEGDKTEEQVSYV
Sequence of Muscarinic acetylcholine receptor M2 (Homo sapiens) (P08172 whole entry): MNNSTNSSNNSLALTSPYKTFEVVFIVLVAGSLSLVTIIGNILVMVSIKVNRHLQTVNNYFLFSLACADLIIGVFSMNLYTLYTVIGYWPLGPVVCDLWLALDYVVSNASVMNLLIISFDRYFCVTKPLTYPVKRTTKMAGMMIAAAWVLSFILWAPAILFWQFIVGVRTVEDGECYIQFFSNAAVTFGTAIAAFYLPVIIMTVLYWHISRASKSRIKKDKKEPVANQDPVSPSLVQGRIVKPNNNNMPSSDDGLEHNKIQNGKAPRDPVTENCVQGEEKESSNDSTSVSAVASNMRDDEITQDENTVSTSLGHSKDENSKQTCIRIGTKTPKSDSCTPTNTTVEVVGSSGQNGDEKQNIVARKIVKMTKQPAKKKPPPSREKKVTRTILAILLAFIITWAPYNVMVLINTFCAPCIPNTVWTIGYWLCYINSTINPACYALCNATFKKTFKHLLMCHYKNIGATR
Sequence of Delta-type opioid receptor (Homo sapiens) (P41143 whole entry): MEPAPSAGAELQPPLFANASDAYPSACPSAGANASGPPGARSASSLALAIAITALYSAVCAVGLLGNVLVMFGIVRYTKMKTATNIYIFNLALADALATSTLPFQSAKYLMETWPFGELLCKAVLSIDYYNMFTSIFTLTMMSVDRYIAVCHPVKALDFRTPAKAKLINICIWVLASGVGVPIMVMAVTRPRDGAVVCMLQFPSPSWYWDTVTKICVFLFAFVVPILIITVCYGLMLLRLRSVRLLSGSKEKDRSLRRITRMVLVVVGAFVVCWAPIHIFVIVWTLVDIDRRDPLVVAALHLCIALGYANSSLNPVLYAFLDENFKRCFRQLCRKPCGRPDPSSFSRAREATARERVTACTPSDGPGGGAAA
Sequence of Histamine H1 receptor (Homo sapiens) (P35367 whole entry): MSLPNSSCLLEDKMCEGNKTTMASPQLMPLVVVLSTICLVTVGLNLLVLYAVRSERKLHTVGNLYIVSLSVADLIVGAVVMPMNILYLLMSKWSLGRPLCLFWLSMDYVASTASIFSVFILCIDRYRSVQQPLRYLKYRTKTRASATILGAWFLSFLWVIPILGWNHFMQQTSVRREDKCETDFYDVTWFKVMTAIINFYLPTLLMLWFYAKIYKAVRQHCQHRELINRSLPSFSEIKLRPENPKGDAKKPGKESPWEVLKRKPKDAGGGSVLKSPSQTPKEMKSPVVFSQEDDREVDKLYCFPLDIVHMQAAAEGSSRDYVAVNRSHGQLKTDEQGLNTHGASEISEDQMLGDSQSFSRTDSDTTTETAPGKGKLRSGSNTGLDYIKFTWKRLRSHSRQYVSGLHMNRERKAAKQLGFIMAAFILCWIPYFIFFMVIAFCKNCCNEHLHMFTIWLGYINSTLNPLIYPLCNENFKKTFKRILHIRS
Sequence of Beta-3 adrenergic receptor (Homo sapiens) (P13945 whole entry, looked up): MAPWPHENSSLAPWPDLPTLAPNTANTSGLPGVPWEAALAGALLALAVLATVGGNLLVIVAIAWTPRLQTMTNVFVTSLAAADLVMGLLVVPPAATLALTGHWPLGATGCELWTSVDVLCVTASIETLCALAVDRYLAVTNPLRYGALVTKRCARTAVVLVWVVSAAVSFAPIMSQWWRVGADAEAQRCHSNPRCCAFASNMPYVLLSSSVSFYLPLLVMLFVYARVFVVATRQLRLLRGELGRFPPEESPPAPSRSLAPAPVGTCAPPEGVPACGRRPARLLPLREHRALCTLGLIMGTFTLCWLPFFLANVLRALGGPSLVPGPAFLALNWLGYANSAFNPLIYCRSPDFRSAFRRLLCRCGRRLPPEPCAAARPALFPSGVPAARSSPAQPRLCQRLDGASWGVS
Sequence of Mu-type opioid receptor (Homo sapiens) (P35372 whole entry): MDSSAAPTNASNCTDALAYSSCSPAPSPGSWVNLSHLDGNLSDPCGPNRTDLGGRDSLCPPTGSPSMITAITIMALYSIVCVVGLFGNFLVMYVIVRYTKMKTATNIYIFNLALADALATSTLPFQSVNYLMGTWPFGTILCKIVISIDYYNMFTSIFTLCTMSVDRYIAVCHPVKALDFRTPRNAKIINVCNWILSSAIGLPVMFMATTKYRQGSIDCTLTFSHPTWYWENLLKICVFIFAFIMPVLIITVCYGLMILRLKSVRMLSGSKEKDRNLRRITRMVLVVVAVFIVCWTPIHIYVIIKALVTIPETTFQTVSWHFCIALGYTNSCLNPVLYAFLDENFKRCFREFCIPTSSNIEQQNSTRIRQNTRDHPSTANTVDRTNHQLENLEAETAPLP
Sequence of Histamine H3 receptor (Homo sapiens) (Q9Y5N1 whole entry): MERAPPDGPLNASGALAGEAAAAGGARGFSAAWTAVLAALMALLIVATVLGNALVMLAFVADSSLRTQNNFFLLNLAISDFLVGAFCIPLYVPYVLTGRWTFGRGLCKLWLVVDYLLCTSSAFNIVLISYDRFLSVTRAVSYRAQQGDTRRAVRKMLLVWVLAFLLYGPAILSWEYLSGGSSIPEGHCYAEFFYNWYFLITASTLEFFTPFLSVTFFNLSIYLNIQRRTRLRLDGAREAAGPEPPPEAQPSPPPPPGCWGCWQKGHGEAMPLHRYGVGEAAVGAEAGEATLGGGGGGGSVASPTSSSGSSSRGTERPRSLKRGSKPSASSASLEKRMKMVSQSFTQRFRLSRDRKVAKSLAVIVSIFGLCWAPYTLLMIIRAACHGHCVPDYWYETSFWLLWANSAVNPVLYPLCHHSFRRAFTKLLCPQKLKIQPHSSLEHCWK
Sequence of Muscarinic acetylcholine receptor M5 (Homo sapiens) (P08912 whole entry): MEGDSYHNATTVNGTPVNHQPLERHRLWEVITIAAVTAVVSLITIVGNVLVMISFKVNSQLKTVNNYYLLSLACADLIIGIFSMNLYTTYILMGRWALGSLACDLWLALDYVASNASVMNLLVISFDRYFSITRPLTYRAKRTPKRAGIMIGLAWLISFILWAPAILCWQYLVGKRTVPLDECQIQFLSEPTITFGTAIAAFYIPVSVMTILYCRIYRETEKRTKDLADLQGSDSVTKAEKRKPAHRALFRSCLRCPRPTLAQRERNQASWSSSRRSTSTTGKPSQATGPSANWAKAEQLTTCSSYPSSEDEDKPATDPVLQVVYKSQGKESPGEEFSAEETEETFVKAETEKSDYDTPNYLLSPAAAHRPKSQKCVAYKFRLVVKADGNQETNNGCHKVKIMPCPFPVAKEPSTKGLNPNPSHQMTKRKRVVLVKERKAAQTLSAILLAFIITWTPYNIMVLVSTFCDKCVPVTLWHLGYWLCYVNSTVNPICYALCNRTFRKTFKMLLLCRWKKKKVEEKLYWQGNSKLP
Sequence of 5-hydroxytryptamine receptor 1E (Homo sapiens) (P28566 whole entry): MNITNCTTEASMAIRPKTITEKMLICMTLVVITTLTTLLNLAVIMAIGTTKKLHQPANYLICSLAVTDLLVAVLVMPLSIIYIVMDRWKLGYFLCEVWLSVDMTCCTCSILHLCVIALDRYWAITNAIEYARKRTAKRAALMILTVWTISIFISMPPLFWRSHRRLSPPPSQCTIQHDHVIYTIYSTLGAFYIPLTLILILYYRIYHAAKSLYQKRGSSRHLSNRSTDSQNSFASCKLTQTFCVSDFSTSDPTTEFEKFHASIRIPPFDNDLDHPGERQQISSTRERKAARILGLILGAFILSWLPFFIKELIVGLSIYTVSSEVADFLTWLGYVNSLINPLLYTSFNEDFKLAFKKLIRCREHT
Sequence of D(1B) dopamine receptor (Homo sapiens) (P21918 whole entry): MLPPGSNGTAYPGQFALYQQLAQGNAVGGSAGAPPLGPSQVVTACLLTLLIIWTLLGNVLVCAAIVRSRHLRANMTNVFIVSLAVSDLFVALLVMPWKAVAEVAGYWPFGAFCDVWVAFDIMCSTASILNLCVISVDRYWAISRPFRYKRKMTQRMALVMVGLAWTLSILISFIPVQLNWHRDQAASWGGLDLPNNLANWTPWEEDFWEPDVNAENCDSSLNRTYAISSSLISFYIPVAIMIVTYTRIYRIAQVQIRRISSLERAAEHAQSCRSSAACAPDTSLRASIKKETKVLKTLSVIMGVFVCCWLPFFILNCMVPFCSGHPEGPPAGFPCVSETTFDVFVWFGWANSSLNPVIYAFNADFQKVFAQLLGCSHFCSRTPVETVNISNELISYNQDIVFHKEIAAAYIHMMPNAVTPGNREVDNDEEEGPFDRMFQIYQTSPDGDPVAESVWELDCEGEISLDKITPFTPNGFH
Sequence of 5-hydroxytryptamine receptor 1B (P28222 whole entry): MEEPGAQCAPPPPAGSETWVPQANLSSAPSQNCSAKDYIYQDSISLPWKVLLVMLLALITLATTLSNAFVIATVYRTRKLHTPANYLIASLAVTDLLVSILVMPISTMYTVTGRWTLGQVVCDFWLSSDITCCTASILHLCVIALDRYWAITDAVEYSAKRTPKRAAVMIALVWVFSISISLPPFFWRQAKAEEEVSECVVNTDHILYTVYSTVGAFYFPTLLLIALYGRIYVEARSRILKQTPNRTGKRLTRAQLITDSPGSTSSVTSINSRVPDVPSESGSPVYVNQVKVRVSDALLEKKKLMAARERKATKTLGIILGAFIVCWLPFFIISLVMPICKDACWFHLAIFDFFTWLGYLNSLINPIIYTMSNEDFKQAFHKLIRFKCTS

Question: How did the inhibition [1] turn out when COc1cc2c3c(c1OC)-c1cc4c(cc1CC3N(C)CC2c1ccccc1)OCO4 (centres undefined) was run?
Answer: 22.6%

Question: What about the inhibition [2] of the same molecule?
Answer: 10.1%

Question: What about the inhibition [3] of the same molecule?
Answer: 92.2%

Question: What about the inhibition [4] of the same molecule?
Answer: 8%

Question: And the inhibition [5]?
Answer: 36.1%

Question: And the inhibition [6]?
Answer: < 50%

Question: What about the inhibition [7] of the same molecule?
Answer: < 50%

Question: And the inhibition [8]?
Answer: < 50%

Question: What about the inhibition [9] of the same molecule?
Answer: < 50%

Question: What about the inhibition [10] of the same molecule?
Answer: < 50%

Question: What about the inhibition (Rattus norvegicus) of the same molecule?
Answer: < 50%

Question: And the inhibition [11]?
Answer: < 50%

Question: And the inhibition [12]?
Answer: < 50%

Question: And the inhibition [13]?
Answer: < 50%

Question: What about the inhibition [14] of the same molecule?
Answer: < 50%

Question: And the inhibition [15]?
Answer: < 50%

Question: And the inhibition [16]?
Answer: < 50%

Question: And the inhibition [17]?
Answer: < 50%

Question: What about the inhibition [18] of the same molecule?
Answer: < 50%

Question: And the inhibition [19]?
Answer: < 50%

Question: What about the inhibition [20] of the same molecule?
Answer: < 50%

Question: What about the inhibition [21] of the same molecule?
Answer: < 50%

Question: And the inhibition [22]?
Answer: < 50%

Question: What about the inhibition [23] of the same molecule?
Answer: < 50%

Question: And the inhibition [24]?
Answer: < 50%

Question: And the inhibition [25]?
Answer: < 50%

Question: And the inhibition [26]?
Answer: < 50%

Question: What about the inhibition [27] of the same molecule?
Answer: < 50%

Question: And the Ki [28]?
Answer: 627 nM

Question: What about the Ki [29] of the same molecule?
Answer: 719 nM

Question: What about the Ki [30] of the same molecule?
Answer: 3220 nM

Question: What about the Ki [31] of the same molecule?
Answer: 433 nM

Question: And the Ki (Translocator protein)?
Answer: 2900 nM

Question: And the Ki [32]?
Answer: 96 nM
